# Assay results taken from ChEMBL document CHEMBL1201862, “PubChem BioAssay data set” (2004).
#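 Where inhibition never reached the appropriate level, the endpoint shown equals the highest concentration tested. Otherwise, values were interpolated linearly from a five-concentration, 48-hour dose response in 96-well plates. The concentration for 50% growth inhibition is given as GI50.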 Active and inactive are the calls of the source. Cut-off read from the data, not from the text of the source: active = GI50 up to about 1.1 µM and inactive = higher.
# Legend:
# Assay in all cases: inhibition of tumour cell growth, NCI panel, 48 h
# [1] = test system: Hs-578T
# [2] = test system: SW-620
# [3] = test system: HOP-18
# [4] = test system: UACC-62
# [5] = test system: NCI-H460
# [6] = test system: SNB-75
# [7] = test system: OVCAR-5
# [8] = test system: SF-295
# [9] = test system: M14
# [10] = test system: K562
# [11] = test system: KM-20L2
# [12] = test system: SNB-19
# [13] = test system: SK-OV-3
# [14] = test system: MDA-N
# [15] = test system: TK-10
# [16] = test system: COLO 205
# [17] = test system: HCT-15
# [18] = test system: EKVX
# [19] = test system: NCI-H23
# [20] = test system: OVCAR-8
# [21] = test system: MDA-MB-231
# [22] = test system: DLD-1
# [23] = test system: HCC 2998
# [24] = test system: SF-268
# [25] = test system: DU-145
# [26] = test system: Malme-3M
# [27] = test system: MCF7
# [28] = test system: LXFL 529
# [29] = test system: T47D
# [30] = test system: KM12
# [31] = test system: DMS-114
# [32] = test system: U-251
# [33] = test system: SN12C
# [34] = test system: 786-0
# [35] = test system: SF-539
# [36] = test system: HCT-116
# [37] = test system: UACC-257
# [38] = test system: OVCAR-4
# [39] = test system: M19-MEL
# [40] = test system: A549
# [41] = test system: IGROV-1
# [42] = test system: SNB-78
# [43] = test system: SK-MEL-5
# [44] = test system: SR
# [45] = test system: CCRF-CEM
# [46] = test system: HOP-92
# [47] = test system: HT-29
# [48] = test system: MDA-MB-435
# [49] = test system: MOLT-4
# [50] = test system: NCI-H522
# [51] = test system: HL-60
# [52] = test system: DMS-273
# [53] = test system: RPMI-8226
# [54] = test system: XF498
# [55] = test system: HOP-62
# [56] = test system: OVCAR-3
# [57] = test system: SK-MEL-2
# [58] = test system: ACHN
# [59] = test system: PC-3
# [60] = test system: LOX IMVI
# [61] = test system: NCI-H226
# [62] = test system: SK-MEL-28
# [63] = test system: RXF 393
# [64] = test system: CAKI-1
# [65] = test system: UO-31
# [66] = test system: A498
structure (smiles),measurement,setting,value
CO/C1=C\C(C)=C\C(C)C(O)C(C)C/C(C)=C/C=C/C(OC)C(C(C)C(O)C(C)C2(O)CC(O)C(C)C(C(C)C)O2)OC1=O (stereo not given),GI50,[1],11 nM (active)
same,GI50,[2],0.471 nM (active)
same,GI50,[3],10100 nM (inactive)
same,GI50,[4],2.8 nM (active)
same,GI50,[5],0.401 nM (active)
same,GI50,[6],8.57 nM (active)
same,GI50,[7],0.491 nM (active)
same,GI50,[8],1.63 nM (active)
same,GI50,[9],0.369 nM (active)
same,GI50,[10],2.31 nM (active)
same,GI50,[11],0.0112 nM (active)
same,GI50,[12],10900 nM (inactive)
same,GI50,[13],684 nM (active)
same,GI50,[14],1.82 nM (active)
same,GI50,[15],14500 nM (inactive)
same,GI50,[16],3.43 nM (active)
same,GI50,[17],0.143 nM
same,GI50,[18],56.6 nM (active)
same,GI50,[19],2.67 nM (active)
same,GI50,[20],1.64 nM (active)
same,GI50,[21],0.382 nM (active)
same,GI50,[22],0.0705 nM (active)
same,GI50,[23],0.757 nM (active)
same,GI50,[24],5.19 nM (active)
same,GI50,[25],0.873 nM (active)
same,GI50,[26],11.9 nM (active)
same,GI50,[27],3.71 nM (active)
same,GI50,[28],0.323 nM (active)
same,GI50,[29],2.97 nM (active)
same,GI50,[30],0.351 nM (active)
same,GI50,[31],4.58 nM (active)
same,GI50,[32],7.06 nM (active)
same,GI50,[33],10 nM (active)
same,GI50,[34],3.31 nM (active)
same,GI50,[35],1.93 nM (active)
same,GI50,[36],0.382 nM (active)
same,GI50,[37],6.34 nM (active)
same,GI50,[38],10 nM (active)
same,GI50,[39],3.74 nM (active)
same,GI50,[40],1.01 nM (active)
same,GI50,[41],2.23 nM (active)
same,GI50,[42],10200 nM (inactive)
same,GI50,[43],0.396 nM (active)
same,GI50,[44],0.0908 nM (active)
same,GI50,[45],1.19 nM (active)
same,GI50,[46],0.41 nM (active)
same,GI50,[47],0.0664 nM (active)
same,GI50,[48],1.98 nM (active)
same,GI50,[49],2.2 nM (active)
same,GI50,[50],1.12 nM (active)
same,GI50,[51],0.134 nM (active)
same,GI50,[52],0.261 nM (active)
same,GI50,[53],1.51 nM (active)
same,GI50,[54],24.2 nM (active)
same,GI50,[55],0.051 nM (active)
same,GI50,[56],4.34 nM (active)
same,GI50,[57],4.53 nM (active)
same,GI50,[58],14.8 nM (active)
same,GI50,[59],2.52 nM (active)
same,GI50,[60],0.01 nM (active)
same,GI50,[61],13.4 nM (active)
same,GI50,[62],66.1 nM (active)
same,GI50,[63],5.26 nM (active)
same,GI50,[64],2.05 nM (active)
same,GI50,[65],2.78 nM (active)
C/C=C/CP(=O)(c1ccccc1)c1ccccc1,GI50,[2],> 100000 nM (inactive)
same,GI50,[3],> 100000 nM (inactive)
same,GI50,[4],> 100000 nM (inactive)
same,GI50,[5],> 100000 nM (inactive)
same,GI50,[6],> 100000 nM (inactive)
same,GI50,[7],> 100000 nM (inactive)
same,GI50,[8],> 100000 nM (inactive)
same,GI50,[9],> 100000 nM (inactive)
same,GI50,[10],> 100000 nM (inactive)
same,GI50,[11],> 100000 nM (inactive)
same,GI50,[12],> 100000 nM (inactive)
same,GI50,[13],> 100000 nM (inactive)
same,GI50,[15],> 100000 nM (inactive)
same,GI50,[16],> 100000 nM (inactive)
same,GI50,[17],> 100000 nM
same,GI50,[18],> 100000 nM (inactive)
same,GI50,[19],> 100000 nM (inactive)
same,GI50,[20],> 100000 nM (inactive)
same,GI50,[22],> 100000 nM (inactive)
same,GI50,[23],> 100000 nM (inactive)
same,GI50,[66],> 100000 nM (inactive)
same,GI50,[26],> 100000 nM (inactive)
same,GI50,[28],> 100000 nM (inactive)
same,GI50,[30],> 100000 nM (inactive)
same,GI50,[31],> 100000 nM (inactive)
same,GI50,[32],> 100000 nM (inactive)
same,GI50,[33],> 100000 nM (inactive)
same,GI50,[34],> 100000 nM (inactive)
same,GI50,[35],> 100000 nM (inactive)
same,GI50,[36],> 100000 nM (inactive)
same,GI50,[37],> 100000 nM (inactive)
same,GI50,[38],> 100000 nM (inactive)
same,GI50,[39],> 100000 nM (inactive)
same,GI50,[40],> 100000 nM (inactive)
same,GI50,[41],> 100000 nM (inactive)
same,GI50,[42],> 100000 nM (inactive)
same,GI50,[43],> 100000 nM (inactive)
same,GI50,[44],> 100000 nM (inactive)
same,GI50,[45],> 100000 nM (inactive)
same,GI50,[47],> 100000 nM (inactive)
same,GI50,[49],> 100000 nM (inactive)
same,GI50,[50],> 100000 nM (inactive)
same,GI50,[51],> 100000 nM (inactive)
same,GI50,[52],> 100000 nM (inactive)
same,GI50,[53],> 100000 nM (inactive)
same,GI50,[54],> 100000 nM (inactive)
same,GI50,[55],> 100000 nM (inactive)
same,GI50,[56],> 100000 nM (inactive)
same,GI50,[57],> 100000 nM (inactive)
same,GI50,[58],> 100000 nM (inactive)
same,GI50,[60],> 100000 nM (inactive)
same,GI50,[61],> 100000 nM (inactive)
same,GI50,[62],> 100000 nM (inactive)
same,GI50,[63],> 100000 nM (inactive)
same,GI50,[65],> 100000 nM (inactive)
